Experimental data taken from article PMC11959975 (Acta Pharmaceutica Sinica. B, 2025).

How the values were obtained:
[1] = test system: arteriovenous shunt thrombosis model in rats; assay: Arteriovenous shunt thrombosis model in rats; assay type: in vivo; settings: 10 mg/kg, i.v.
MCAO model of SD rats [2] = assay: Rat model of acute ischemic stroke; assay type: in vivo; settings: acute IS rats, 10 mg/kg
MCAO model of SD rats [3] = assay: Rat model of chronic ischemic stroke; assay type: in vivo; settings: chronic IS rats
[4] = test system: permanent cerebral ischemic stroke in rats; assay: Rat model of permanent ischemic stroke; assay type: in vivo, SD rats; settings: permanent IS rats
mice = assay: Bleeding time of tail clipping in mice; assay type: in vivo; settings: 5 mg/kg

What does the source list for `CCCCC(O)c1ccccc1C(=O)[O-].[K+]` (stereo not drawn) [PHPB, potassium 2-(1-hydroxypentyl)-benzoate]?
inhibition (%) of dry thrombus [1]: 11.32%; inhibition (%) of wet thrombus [1]: 15.39%

What does the source list for `CCCC[C@@H]1OC(=O)c2ccccc21` [S-NBP]?
inhibition (%) of dry thrombus [1]: 25.95%; inhibition (%) of wet thrombus [1]: 33.24%

`CCCCC1OC(=O)c2ccccc21` (stereo not drawn) [NBP, R,S-3-n-butylphthalide] was tested. Which “reduction of cerebral infarction volume vs model group” value (MCAO model of SD rats [2]) did it give?
The value was 35%.

And the “reduction of cerebral infarction volume” value (MCAO model of SD rats [3]; 5.0 mg/kg)?
Its value is 32%.

And the “misstep frequency (grid test)” value (MCAO model of SD rats [3]; day 14 after modeling)?
Its value is “significantly higher than that in the sham group”.

And the “reduction of cerebral infarction volume vs model group” value ([4]; 10 mg/kg)?
Its value is 7%.

And the NSS value ([4]; day 1 after surgery)?
Its NSS value is “lower than that of the model group but without significant difference”.

Which results are given for `CC(=O)Oc1ccccc1C(=O)O` [ASP, O-acetoxybenzoic acid]?
Bleeding time (mice): 22.52 ± 1.31 min; inhibition (%) of dry thrombus [1]: 39.67%; inhibition (%) of wet thrombus [1]: 40.74%
